Test results published in patent US6288230A, “2-(2, 3-dihydrobenzofuran-5-yl)-4-aminomethylimidazoles: dopamine receptor subtype specific ligands” (Neurogen Corporation, priority 1999, dated 2001).
Where a name gives a salt, the structure may show the parent alone.

Assays:
D4 receptor = D4 receptor binding (displacement of 3H-YM 09151-2, COS cells with recombinant receptor); set-up: species or system African Green monkey; settings: 0.5 nM 3H-YM 09151-2; nonspecific binding with 1 mM spiperone
Experimental: Pellets of COS cells containing recombinantly produced D2 or D4 receptors from African Green monkey are used for the assays. The sample is homogenized in 100 volumes (w/vol) of 0.05 M Tris HCl buffer at […] and pH 7.4. The sample is then centrifuged at 30,000×g and resuspended and rehomogenized. The sample is then centrifuged again at 30,000×g and the final tissue sample is frozen until use. The tissue is resuspended 1:20 (wt/vol) in 0.05 M Tris HCl buffer containing 100 mM NaCl.

D2 receptor = D2 receptor (Chlorocebus aethiops, UniProt P52702); assay: D2 receptor binding (displacement of 3H-YM 09151-2, COS cells with recombinant receptor); set-up: species or system African Green monkey; settings: 0.5 nM 3H-YM 09151-2; nonspecific binding with 1 mM spiperone
Sequence of D2 receptor (P52702 whole entry): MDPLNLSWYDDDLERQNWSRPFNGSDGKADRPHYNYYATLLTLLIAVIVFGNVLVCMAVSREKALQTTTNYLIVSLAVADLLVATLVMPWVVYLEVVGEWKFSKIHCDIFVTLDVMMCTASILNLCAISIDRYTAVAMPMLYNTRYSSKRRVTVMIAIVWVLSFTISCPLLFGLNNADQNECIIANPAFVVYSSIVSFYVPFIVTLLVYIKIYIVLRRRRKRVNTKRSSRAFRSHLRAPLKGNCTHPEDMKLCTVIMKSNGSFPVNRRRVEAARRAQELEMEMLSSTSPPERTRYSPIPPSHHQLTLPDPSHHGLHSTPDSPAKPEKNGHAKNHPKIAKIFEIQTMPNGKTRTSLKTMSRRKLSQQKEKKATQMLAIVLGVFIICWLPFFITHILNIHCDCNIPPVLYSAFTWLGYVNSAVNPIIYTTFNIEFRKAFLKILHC

Question: How did the Ki (D4 receptor) turn out when `COc1ccccc1N1CCN(Cc2c[nH]c(-c3ccc4c(c3)CCO4)n2)CC1` [Compound 1, 2-(2,3-Dihydrobenzofuran-5-yl)-4-(1-[4-{2-methoxyphenyl}piperazin-1-yl]methyl)imidazole] was run?
Answer: The Ki was 3 nM.

Question: And the Ki (D2 receptor)?
Answer: Its Ki is 143 nM.

Question: `Cc1cnc(N2CCN(Cc3cnc(-c4ccc5c(c4)CCO5)[nH]3)CC2)nc1` [Compound 3a, 5-(5-{[4-(5-methylpyrimidin-2-yl)piperazinyl]-methyl}imidazol-2-yl)-2,3-dihydrobenzo[b]furan] was tested. Which Ki (D2 receptor) did it give?
Answer: The Ki was 716 nM.

Question: How did the Ki (D4 receptor) turn out when `c1ccc(CC2CCN(Cc3c[nH]c(-c4ccc5c(c4)CCO5)n3)CC2)cc1` [Compound 6, 2-(2,3-Dihydrobenzofuran-5-yl)-4-(1-[4-benzylpiperidin-1-yl]methyl)imidazole hydrochloride] was run?
Answer: Its Ki is 3 nM.

Question: What about the Ki (D2 receptor) of the same compound?
Answer: The Ki was 650 nM.

Question: `c1ccc2nc(N3CCN(Cc4cnc(-c5ccc6c(c5)CCO6)[nH]4)CC3)ncc2c1` [Compound 7, 2-(2,3-Dihydrobenzofuran-5-yl)-4-(1-[4-{4,5-benzopyrimidin-2-yl}piperazin-1-yl]methyl)imidazole hydrochloride] was tested. Which Ki (D4 receptor) did it give?
Answer: Its Ki is 32 nM.

Question: And the Ki (D2 receptor)?
Answer: The Ki was 1130 nM.

Question: Which Ki (D4 receptor) does the source give for `c1ccc2c(N3CCN(Cc4c[nH]c(-c5ccc6c(c5)CCO6)n4)CC3)nccc2c1` [Compound 8, 2-(2,3-Dihydrobenzofuran-5-yl)-4-(1-[4-{isoquinolin-1-yl}piperazin-1-yl]methyl)imidazole] here?
Answer: The Ki was 1 nM.

Question: And the Ki (D2 receptor)?
Answer: The Ki was 125 nM.
